Measurements taken from US20170275298A1, “INHIBITORS OF THE RENAL OUTER MEDULLARY POTASSIUM CHANNEL” (Merck Sharp & Dohme Corp., priority 2014, published 2017).

target: T1, hROMK (hKir1.1) (Homo sapiens, UniProt P48048); test: Thallium Flux Assay (ROMK channel functional thallium flux assay); assay type: cell-based; details: HEK293 cells stably expressing hROMK (hKir1.1); FluxOR thallium flux, FLIPR-Tetra, 30 min compound incubation; read-out: ROMK TI IC50
T1 construct: expressed in transfected cells
T1 sequence (P48048 1-391): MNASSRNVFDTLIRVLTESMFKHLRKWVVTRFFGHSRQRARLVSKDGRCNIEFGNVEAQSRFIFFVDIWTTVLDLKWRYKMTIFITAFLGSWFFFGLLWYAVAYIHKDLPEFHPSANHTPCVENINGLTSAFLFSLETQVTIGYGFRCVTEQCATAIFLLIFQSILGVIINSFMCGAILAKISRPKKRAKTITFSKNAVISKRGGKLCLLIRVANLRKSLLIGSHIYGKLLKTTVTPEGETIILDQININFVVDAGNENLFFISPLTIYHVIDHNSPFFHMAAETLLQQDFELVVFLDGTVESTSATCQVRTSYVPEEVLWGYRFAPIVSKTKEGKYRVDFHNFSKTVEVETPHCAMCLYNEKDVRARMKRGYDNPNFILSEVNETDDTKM
Description: The following Thallium Flux Assay was performed on each of the final product compounds in the Examples.
HEK293 cells stably expressing hROMK (hKir1.1) were grown at 37° C. in a 10% CO2 humidified incubator in complete growth media: Dulbecco's Modified Eagle Medium supplemented with non-essential amino acids, Penicillin/Streptomycin/Glutamine, G418 and FBS. At >80% confluency, the media was aspirated from the flask and rinsed with 10 mL calcium/magnesium-free PBS. […] To dislodge the cell, the side of the flask was gently banged with one's hand. The cells completely titrated and then the cells were transferred to 25 mL complete media, centrifuged at 1,500 rpm for 6 min followed by resuspension in complete growth media and determine cell concentration. […] Under ideal growth conditions and appropriate tissue culture practices, this cell line is stable for 40-45 passages.
• FluxOR™ Reagent (Component A) • FluxOR™ Assay Buffer (Component B)—10× Concentrate • PowerLoad™ Concentrate (Component C)—100× Concentrate • Probenecid (Component D)—Lyophilized sample is kept at −20° C. Water soluble, 100× after solubilization in 1 mL water. […] Store at 4° C. • Thallium sulfate (Tl2SO4) Concentrate (Component G)—50 mM in water. Store at 4° C. • DMSO (dimethyl sulfoxide, Component H)—1 mL (100%)
Can be stored at room temperature • Stimulant Buffer (prepared at 5× final concentration in 1×FluxOR™ Chloride-Free Buffer): 7.5 mM thallium sulfate and 0.75 mM potassium sulfate (to give a final assay concentration of 3 mM Thallium/0.3 mM potassium). Store at 4° C. when not in use. If kept sterile, this solution is good for months.
The ROMK channel functional thallium flux assay was performed in 384 wells, using the FLIPR-Tetra instrument. HEK-hKir1.1 cells were seeded in Poly-D-Lysine microplates and kept in a 37° C.-10% CO2 incubator overnight. On the day of the experiment, the growth media was replaced with the FluxOR™ reagent loading buffer and incubated, protected from light, at ambient temperature (23-25° C.) for 90 min. The loading buffer was replaced with assay buffer±test compound followed by 30 min incubation at ambient temperature, where the thallium/potassium stimulant was added to the microplate.
1. Seed HEK-hKir1.1 cells (50 μl at 20,000 cells/well) in 384-well PDL coated Microplates 2. Allow cells to adhere overnight in humidified 37° C./10% CO2 incubator 3. Completely remove cell growth media from microplate and replace with 25 μl loading buffer 4. Incubate Microplate at room temperature, protected form light, for 90 min 5. Remove loading buffer and replace with 25 μl 1× Assay Buffer±test compound. 6. Incubate microplate at room temperature, protected from light, for 30 min 7. […] Excitation=400 nm, Emission=460 & 580 nm. Collect data for ˜10 min.
The fluorescence intensity of wells containing 3 μM of a standard control ROMK inhibitor of the present invention was used to define the ROMK-sensitive component of thallium flux. Fluorescence in the presence of test compounds was normalized to control values to provide % fluorescence change.

| IC50 [nM] | Structure (SMILES) |
| --- | --- |
| 100 | CC(=O)OCc1nsc(N2CCC3(CCN(C[C@H](O)c4ccc5c(c4C)COC5=O)CC3)C2)n1 [Example 3, (5-{8-[(2R)-2-hydroxy-2-(4-methyl-1-oxo-1,3-dihydro-2-benzofuran-5-yl)ethyl]-2,8-diazaspiro[4.5]dec-2-yl}-1,2,4-thiadiazol-3-yl)methyl acetate] |
| 480 | COc1cc(N2CCC3(CCN(C[C@H](O)c4ccc5c(c4C)COC5=O)CC3)C2=O)cnn1 [Example 50, (R)-8-(2-hydroxy-2-(4-methyl-1-oxo-1,3-dihydroisobenzofuran-5-yl)ethyl)-2-(6-methoxypyridazin-4-yl)-2,8-diazaspiro[4.5]decan-1-one] |
| 120 | Cc1c([C@@H](O)CN2CCC3(CC2)CCN(c2ccnnc2)C3=O)ccc2c1COC2=O [Example 90, (R)-8-(2-hydroxy-2-(4-methyl-1-oxo-1,3-dihydroisobenzofuran-5-yl)ethyl)-2-(pyridazin-4-yl)-2,8-diazaspiro[4.5]decan-1-one] |
| 378 | Cc1c([C@@H](O)CN2CCC3(CC2)C[C@H](C)N(c2ccc(=O)n(C)n2)C3=O)ccc2c1COC2=O [Example 97, (S)-8-((R)-2-hydroxy-2-(4-methyl-1-oxo-1,3-dihydroisobenzofuran-5-yl)ethyl)-3-methyl-2-(1-methyl-6-oxo-1,6-dihydropyridazin-3-yl)-2,8-diazaspiro[4.5]decan-1-one] |
| 241 | CCOC(=O)c1cc(N2CCC3(CCN(C[C@H](O)c4ccc5c(c4C)COC5=O)CC3)C2=O)on1 [Example 64, (R)-ethyl 5-(8-(2-hydroxy-2-(4-methyl-1-oxo-1,3-dihydroisobenzofuran-5-yl)ethyl)-1-oxo-2,8-diazaspiro[4.5]decan-2-yl)isoxazole-3-carboxylate] |
| 56 | Cc1c([C@@H](O)[C@@H](C)N2CCC3(CCN(c4ccc(=O)n(C)n4)C3=O)CC2)ccc2c1COC2=O [Example 108, 8-((1R,2R)-1-hydroxy-1-(4-methyl-1-oxo-1,3-dihydroisobenzofuran-5-yl)propan-2-yl)-2-(1-methyl-6-oxo-1,6-dihydropyridazin-3-yl)-2,8-diazaspiro[4.5]decan-1-one] |
| 279 | Cc1c([C@@H](O)CN2CCC3(CC2)CCN(c2cnn(C)c(=O)c2)CC3)ccc2c1COC2=O [Example 110, (R)-5-(9-(2-hydroxy-2-(4-methyl-1-oxo-1,3-dihydroisobenzofuran-5-yl)ethyl)-3,9-diazaspiro[5.5]undecan-3-yl)-2-methylpyridazin-3(2H)-one] |
| 967 | Cc1c([C@@H](O)CN2CCC3(CC2)CCN(c2ncc(C(F)(F)F)cc2F)CC3)ccc2c1COC2=O [Example 119, (R)-5-(2-(9-(3-fluoro-5-(trifluoromethyl)pyridin-2-yl)-3,9-diazaspiro[5.5]undecan-3-yl)-1-hydroxyethyl)-4-methylisobenzofuran-1(3H)-one] |
| 801 | Cc1c([C@@H](O)CN2CCC3(CCCN(c4ccncc4)C3=O)CC2)ccc2c1COC2=O [Example 85, (R)-9-(2-hydroxy-2-(4-methyl-1-oxo-1,3-dihydroisobenzofuran-5-yl)ethyl)-2-(pyridin-4-yl)-2,9-diazaspiro[5.5]undecan-1-one] |
| 63.1 | Cc1c([C@@H](O)CN2CCC3(CC2)CCN(c2ccc(C(F)F)nc2)C3=O)ccc2c1COC2=O [Example 33, (R)-2-(6-(difluoromethyl)pyridin-3-yl)-8-(2-hydroxy-2-(4-methyl-1-oxo-1,3-dihydroisobenzofuran-5-yl)ethyl)-2,8-diazaspiro[4.5]decan-1-one] |
| 35.1 | Cc1c([C@@H](O)CN2CCC3(CC2)CCN(c2ccc(=O)n(C)n2)C3=O)ccc2c1COC2=O [Example 56, (R)-8-(2-hydroxy-2-(4-methyl-1-oxo-1,3-dihydroisobenzofuran-5-yl)ethyl)-2-(1-methyl-6-oxo-1,6-dihydropyridazin-3-yl)-2,8-diazaspiro[4.5]decan-1-one] |
| 417 | Cc1c([C@@H](O)CN2CCC3(CC2)CCN(c2ccncc2F)C3=O)ccc2c1COC2=O [Example 73, (R)-2-(3-fluoropyridin-4-yl)-8-(2-hydroxy-2-(4-methyl-1-oxo-1,3-dihydroisobenzofuran-5-yl)ethyl)-2,8-diazaspiro[4.5]decan-1-one] |
| 673 | Cc1cc2c(cc1[C@H](O)CN1CCC3(CC1)CCN(c1ccns1)C3=O)COC2=O [Example 69, (S)-8-(2-hydroxy-2-(6-methyl-1-oxo-1,3-dihydroisobenzofuran-5-yl)ethyl)-2-(isothiazol-5-yl)-2,8-diazaspiro[4.5]decan-1-one] |
| 282 | Cc1c([C@@H](O)CN2CCC3(CC2)CCN(c2ccccn2)CC3)ccc2c1COC2=O [Example 112, 3-[(2R)-2-hydroxy-2-(4-methyl-1-oxo-1,3-dihydro-2-benzofuran-5-yl)ethyl]-9-pyridin-2-yl-9-aza-3-azoniaspiro[5.5]undecane] |
| 418 | Cc1c([C@@H](O)CN2CCC3(CC2)CN(c2ccns2)C3)ccc2c1COC2=O [Example 16] |
| 40.6 | Cc1c([C@@H](O)CN2CCC3(CC2)CCN(c2ccc(=O)n(C4CC4)n2)C3=O)ccc2c1COC2=O [Example 53, (R)-2-(1-cyclopropyl-6-oxo-1,6-dihydropyridazin-3-yl)-8-(2-hydroxy-2-(4-methyl-1-oxo-1,3-dihydroisobenzofuran-5-yl)ethyl)-2,8-diazaspiro[4.5]decan-1-one] |
| 547 | Cc1c([C@@H](O)CN2CCC3(CC2)CC(=O)N(c2ccns2)C3)ccc2c1COC2=O [Example 61, (R)-8-(2-hydroxy-2-(4-methyl-1-oxo-1,3-dihydroisobenzofuran-5-yl)ethyl)-2-(isothiazol-5-yl)-2,8-diazaspiro[4.5]decan-3-one] |
| 54.2 | Cc1c([C@@H](O)CN2CCC3(CC2)CCN(c2sncc2Cl)C3=O)ccc2c1COC2=O [Example 105, (R)-2-(4-chloroisothiazol-5-yl)-8-(2-hydroxy-2-(4-methyl-1-oxo-1,3-dihydroisobenzofuran-5-yl)ethyl)-2,8-diazaspiro[4.5]decan-1-one] |
| 616 | Cc1c([C@@H](O)CN2CCC3(CC2)CCN(c2ccc(=O)n(C)n2)CC3)ccc2c1COC2=O [Example 113, (R)-6-(9-(2-hydroxy-2-(4-methyl-1-oxo-1,3-dihydroisobenzofuran-5-yl)ethyl)-3,9-diazaspiro[5.5]undecan-3-yl)-2-methylpyridazin-3(2H)-one] |
| 336 | COc1nsc(N2CCC3(CCN(C[C@H](O)c4ccc5c(c4C)COC5=O)CC3)C2)n1 [Example 13, (R)-5-(1-hydroxy-2-(2-(3-methoxy-1,2,4-thiadiazol-5-yl)-2,8-diazaspiro[4.5]decan-8-yl)ethyl)-4-methylisobenzofuran-1(3H)-one] |
| 935 | Cc1c([C@@H](O)CN2CCC3(CC2)CCN(c2nc(Cl)cs2)C3)ccc2c1COC2=O [Example 2, 5-{(1R)-2-[2-(4-chloro-1,3-thiazol-2-yl)-2,8-diazaspiro[4.5]dec-8-yl]-1-hydroxyethyl}-4-methyl-2-benzofuran-1(3H)-one] |
| 725 | COc1cc(N2CCC3(CCN(C[C@H](O)c4ccc5c(c4C)COC5=O)CC3)C2)nc(OC)n1 [Example 10, (R)-5-(2-(2-(2,6-dimethoxypyrimidin-4-yl)-2,8-diazaspiro[4.5]decan-8-yl)-1-hydroxyethyl)-4-methylisobenzofuran-1(3H)-one] |
